Tested on: POROL (Portulaca oleracea, portulaca)
Assay: Post-emergence herbicidal activity of mixtures in forage crops, greenhouse (Example IV)
Type: in vivo, Portulaca oleracea L.
Conditions: Table 58 (forage), foliar-applied, after approximately 21 days
Procedure: Seeds or root cuttings of the desired test plant species were planted in Sun Gro MetroMix® 306 planting mixture, which typically has a pH of 6.0 to 6.8 and an organic matter content of about 30 percent, in plastic pots with a surface area of 126.6 square centimeters (cm^2). When required to ensure good germination and healthy plants, a fungicide treatment and/or other chemical or physical treatment was applied. The plants were grown for 14-60 days in a greenhouse with an approximate 14 hour photoperiod which was maintained at approximately 28° C. during the day and 24° C. during the night. Nutrients and water were added on a regular basis and supplemental lighting was provided with overhead metal halide 1000-Watt lamps as necessary. The plants were employed for testing when they reached the BBCH13 to BBCH23 leaf stage.
Treatments consisted of the benzyl ester of 4-amino-3-chloro-5-fluoro-6-(4-chloro-2-fluoro-3-methoxy-phenyl)pyridine-2-carboxylic acid (Compound A), formulated as a SC, and a second herbicide alone and in combination.
A measured aliquot of Compound A was placed in 25 milliliter (mL) glass vial and diluted in a volume of 1.25% (v/v) Agri-dex crop oil concentrated to obtain stock solutions. Compound requirements are based upon a 12 mL application volume at a rate of 187 liters per hectare (L/ha). Spray solutions of the second cereal herbicide and experimental compound mixtures were prepared by adding the stock solutions to the appropriate amount of dilution solution to form 12 mL spray solution with active ingredients in two- and three-way combinations. […]
The treated plants and control plants were placed in a greenhouse as described above and watered by sub-irrigation to prevent wash-off of the test compounds. After approximately 21 days, the condition of the test plants, as compared with that of the control plants, was determined visually and scored on a scale of 0 to 100 percent where 0 corresponds to no injury and 100 corresponds to complete kill. […]

`COc1c(Cl)ccc(-c2nc(C(=O)OCc3ccccc3)c(Cl)c(N)c2F)c1F` [Compound A Benzyl Ester] was tested, and the “Weed Control POROL Obs” value (2.2 gai/ha alone) was 47% and the “Weed Control POROL Obs” value (4.4 gai/ha alone) was 60%.

— patent publication US8871681B2, “Herbicidal compositions comprising 4-amino-3-chloro-5-fluoro-6-(4-chloro-2-fluoro-3-methoxyphenyl) pyridine-2-carboxylic acid or a derivative thereof and certain sulfonylureas” (Dow AgroSciences LLC, priority 2012, dated 2014)
